# Measurements as given in patent US9410956B1, “Micro-RNA profiling in ovarian cancer” (University of South Florida, priority 2008, dated 2016).
# Experiments:
# A2780CP cells [1] = assay: MTT cell viability assay after knockdown of miR-214; format: cell-based, human; conditions: knockdown of miR-214 alone, 150 pMol oligonucleotide per well
# Description: (§1) FIG. 4B: An image showing an MTT assay. The 2′-O-me-anti-miR-214- or scramble 2′-O-me-transfected A2780CP cells were treated with 20 uM of cisplatin or DMSO vehicle for the indicated times and examined for cell viability.
# (§2) 2′-O-methyl (2′-O-me) oligoribonucleotides were synthesized by Integrated DNA Technologies. The sequences of 2′-O-methyl-anti-miR-214 and -miR-199a* are: 5′-[…]-3′ (SEQ ID NO: 1) and 5′-[…] UGUA-3′ (SEQ ID NO: 3). 2′-O-me-scrambled miR (5′-[…]-3′) (SEQ ID NO: 15) was used as a control. Cells were grown in 6-well plate (1.7×10^6 cells/well) for 24 h and transfected with 150 pMol of 2′-O-me oligoribonucleotides per well using Lipofectamine 2000. RNA and protein were extracted after 72 h transfection.
# (§3) A2780CP cells were transfected with 2′-O-methyl-anti-miR-214. The cells transfected with 2′-O-methyl-scramble-miR were used as control. […] Further, the cells were treated with cisplatin or vehicle DMSO.
# miR-214 = assay: qRT-PCR of miR-214 level after 2′-O-methyl oligonucleotide transfection; format: cell-based, human; conditions: A2780CP cells, 72 h after transfection
# Description: FIG. 4A: An image showing A2780CP, a cisplatin-resistant cell line and expressing elevated levels of endogenous miR-214, was transfected with 2′-O-me-anti-miR-214 or scramble 2′-O-me oligonucleotides and assayed with qRT-PCR with primers of miR-214 (top) and U6 (bottom).
# Expression of miRNAs was also analyzed by RNase protection or mirVana qRT-PCR miRNA detection assay. For RNase protection assay, enriched small RNA was purified using the miRVana miRNA Isolation Kit (Ambion). The mirVana™ miRNA probe construction kit (Ambion) was used to synthesize the ^32P-labeled miR-214 probe. Probe hybridization and RNase protection were then carried out using the mirVana™ miRNA detection kit (Ambion) according to manufacturer's instructions. After hybridization and RNase treatment, the double-strand products were resolved in a 15% polyacrylamide 8 M urea denaturing gel and visualized using phosphoimaging and autoradiography. mirVana qRT-PCR was performed according to the manufacturer's protocol (Ambion). PCR products were analyzed by electrophoresis on a 7.5% polyacrylamide gel in 0.5×TBE and visualized by ethidium bromide staining.
# 2′-O-methyl (2′-O-me) oligoribonucleotides were synthesized by Integrated DNA Technologies. The sequences of 2′-O-methyl-anti-miR-214 and -miR-199a* are: 5′-[…]-3′ (SEQ ID NO: 1) and 5′-[…] UGUA-3′ (SEQ ID NO: 3). […]
# PTEN [2] = assay: Immunoblot of PTEN protein after knockdown of miR-214 in A2780CP cells; format: cell-based, human; conditions: 72 h
# Description: (§4) FIG. 2B: An image showing miR-214 reduces PTEN protein but not mRNA levels. HIOSE-80 cells (left panels) were transfected with pcDNA3.1/V5-His-Topo-miR-214, -miR199a* and vector alone and immunoblotted with indicated antibodies (panels 1-4). The expression of miR-214 and miR-199a* was determined by qRT-PCR (panels 5 and 6). PTEN mRNA level was measured by RT-PCR (panel 8). U6 (panel 7) and GAPDH (bottom panel) were used for controls. Middle and right panels show knockdown of miR-214 inducing PTEN expression. A2780CP cells were transfected with antisense 2′-O-methyl oligonucleotide targeting miR-214 at concentration of […] (6 well plate) with Lipofectamine 2000. Anti-miR199a* and scramble 2′-O-methyl oligonucleotide were used as controls. After incubation of 72 h, cells were lysed and immunoblotted with indicated antibodies (middle).
# as §2, with “transfection. […]” for “transfection.”
# Akt = assay: Immunoblot of phospho-Akt and Akt substrates after knockdown of miR-214 in A2780CP cells; format: cell-based, human; conditions: 72 h
# Description: as §4
# as §2, with “transfection. […]” for “transfection.”
# A2780CP cells [3] = assay: Cisplatin-induced apoptosis after knockdown of miR-214 (MTT, subG1 flow cytometry); format: cell-based, human; conditions: 20 uM cisplatin
# Description: as §1
# FIG. 4C: An image showing flow cytometry. Indicated cells were treated with cisplatin or DMSO for 12 h and the subG1 population was identified by flow cytometry.
# as §3
# PTEN [4] = conditions: ovarian cancer cell lines (Schondorf et al. 2004); cited from earlier work
# ovarian cancer = conditions: adjuvant chemotherapy, ovarian cancer patients (Aghajanian 2004); cited from earlier work
compound,measurement,setting,value
"5′-CUGCCUGUCUGUGCCUGCUGU-3′ (all 2'-O-methyl, backbone not given here) [2′-O-methyl-anti-miR-214, antisense 2′-O-methyl oligoribonucleotide targeting miR-214]",reduction of cell survival,A2780CP cells [1],about 20%
same,level of miR-214,miR-214,significantly decreased
same,protein level of PTEN,PTEN [2],increased
same,phosphorylation levels of Akt and Akt substrates GSK3β and p70S6K,Akt,decreased
same,sensitization to cisplatin-induced apoptosis,A2780CP cells [3],considerably sensitized
Nc1ncn([C@H]2C[C@H](O)[C@@H](CO)O2)c(=O)n1 [5-aza-2′ deoxycytidine],PTEN protein expression,PTEN [4],failed to restore
N.N.[Cl][Pt][Cl] [cisplatin],clinical response (share of patients),ovarian cancer,approximately 80%
